Measured values from patent publication US9913838B2, “Methods of treating cancer using compositions comprising perillyl alcohol derivative” (NEONC TECHNOLOGIES INC., priority 2010, dated 2018).
“Also recorded” adds a separate entry of the source.

Experiments:
[1] = test system: TMZ resistant cells (U251TR); assay: MTT cytotoxicity assay, U251TR cells; type: cell-based, human; settings: in words
From the text: (§1) Cancer Lett. 2011 Mar. 28; 302(2):100-8.

[2] = test system: normal astrocytes; assay: MTT cytotoxicity assay, normal astrocytes; type: cell-based; settings: in words
From the text: as §1

[3] = test system: brain endothelial cells (BEC; confluent and subconfluent); assay: MTT cytotoxicity assay, brain endothelial cells; type: cell-based; settings: in words
From the text: as §1

[4] = test system: USC-04 glioma cancer stem cells; assay: cells; settings: read-out: cytotoxicity with 1050
Description: MTT cytotoxicity assays were carried out after cells were treated with the TMZ alone, POH alone, or the TMZ-POH conjugate. The MTT cytotoxicity assays were carried out as described in Chen T C, et al. Green tea epigallocatechin gallate enhances therapeutic efficacy of temozolomide in orthotopic mouse glioblastoma models. Cancer Lett. 2011 Mar. 28; 302(2):100-8.

[5] = test system: tumor brain endothelial cells (TuBEC); assay: MTT cytotoxicity assay, tumor brain endothelial cells; type: cell-based; settings: in words
From the text: as §1

[6] = test system: γ-H2AX, activated caspase 7 and cleaved PARP; assay: DNA damage and cell death marker analysis in MDA-MB-231 cells (Western blot); type: cell-based, human; settings: in words
Description: FIGS. 25A-25B show DNA damage and cell death marker analysis, where MDA-MB-231 cells were used for Western blot analysis of expression levels for markers of DNA damage (γ-H2AX) and cell death (activated caspase 7 and cleaved PARP). In FIG. 25A, cells were treated with 15 μM TMZ-POH and harvested every 24 hours up to 6 days; control cells remained untreated, or received vehicle (vh.) only. In FIG. 25B, cells were treated with 20 μM of either TMZ-POH, TMZ, or POH individually, or with 20 μM TMZ combined with 20 μM POH (TMZ+POH) and harvested after 24 hours or 5 days; control cells remained untreated, or received vehicle (vh.) only. In the case of caspase 7, only the activated (cleaved) form is shown (cl. C-7).
Total cell lysates were analyzed by Western blot analysis as described in P. Pyrko et al. Downregulation of survivin expression and concomitant induction of apoptosis by celecoxib and its non-cyclooxygenase-2-inhibitory analog, dimethyl-celecoxib (DMC), in tumor cells in vitro and in vivo. Mol Cancer 5 (2006) 19. The primary antibodies were purchased from Cell Signaling Technology (Beverly, Mass.) or Santa Cruz Biotechnology, Inc. (Santa Cruz, Calif.) and used according to the manufacturers' recommendations. All immunoblots were repeated at least once to confirm the results.
It is known that GBM cells treated with physiological concentrations of TMZ (<100 μM) in vitro can survive for several (5-7) days seemingly unaffected before substantial cell death becomes apparent. We observed a similar phenotype when breast cancer cell lines were treated with TMZ-POH, i.e., cell cultures only began to deteriorate approximately a week after the onset of drug treatment. In order to characterize TMZ-POH-induced cell death in greater detail, we treated MDA-MB-231 cells with 15 μM of the drug and collected cell lysates daily over the course of 6 days. The lysates were analyzed by Western blot for the presence of two apoptosis markers, cleaved (i.e. activated) caspase 7 and cleaved PARP-1 (poly ADP-ribose polymerase-1), along with the DNA damage marker γ-H2AX.
As shown in FIGS. 20A-20B above, an equimolar combination of TMZ+POH was unable to achieve the same potency in blocking colony survival as the TMZ-POH conjugate. […] We treated cells with the same concentration (20 μM) of TMZ-POH, TMZ, POH, or TMZ combined with POH (TMZ+POH), and analyzed the induction of γ-H2AX, activated caspase 7, and cleaved PARP. […] Thus, the results from the cell survival assay (FIGS. 20A-20B) correlated closely with the effects of these compounds on DNA damage and apoptosis markers (FIG. 25B), and in all cases TMZ-POH clearly generated the strongest anticancer impact.

[7] = test system: MGMT-positive breast cancer cell lines; assay: Colony formation assay, MGMT-positive breast cancer cell lines (summary); type: cell-based; settings: Homo sapiens; range over the three MGMT-positive lines
Description: Depending on the cell line (and plating efficiency), 200-350 cells were seeded into each well of a 6-well plate. […] Thereafter, the drugs were removed, fresh growth medium was added, and the cells were kept in culture undisturbed for 12-16 days, during which time the surviving cells spawned colonies of descendants. Colonies (defined as groups of >50 cells) were visualized by staining for 4 hours with 1% methylene blue (in methanol), and then were counted.

C=C(C)[C@@H]1CC=C(COC(=O)NC(=O)c2ncn3c(=O)n(C)nnc23)CC1 [TMZ-POH]
cytotoxicity (MTT assay) [1]: demonstrated cytotoxicity
cytotoxicity (MTT assay) [2]: not towards normal astrocytes; also recorded: did not induce significant cytotoxicity
cytotoxicity (MTT assay) ([3]; confluent BEC): did not induce significant cytotoxicity
cytotoxicity (MTT assay) ([3]; subconfluent BEC, high concentrations): Mild to moderate cytotoxicity
IC50 [4]: 150 µM
cytotoxicity (MTT assay) [5]: did not induce significant cytotoxicity
active caspase 7 and cleaved PARP ([6]; MDA-MB-231, 15 μM, over 6 days): started to increase at day 3
γ-H2AX expression levels ([6]; MDA-MB-231, 15 μM, over 6 days): pronounced increase in γ-H2AX expression levels
induction of γ-H2AX, activated caspase 7, and cleaved PARP ([6]; MDA-MB-231, 20 μM, after 5 days of treatment): induced quite prominently
IC50 [7]: 31 to 33 µM
